Data reported in US8278072B1, “Method for synthesis of sialylated products using reversible sialylation” (Health Research, Inc., priority 2007, dated 2012).

Biological target: T1, ST3Gal-II (Rattus norvegicus, UniProt Q11205)
T1 construct: purchased Calbiochem
T1 sequence (Q11205 1-350): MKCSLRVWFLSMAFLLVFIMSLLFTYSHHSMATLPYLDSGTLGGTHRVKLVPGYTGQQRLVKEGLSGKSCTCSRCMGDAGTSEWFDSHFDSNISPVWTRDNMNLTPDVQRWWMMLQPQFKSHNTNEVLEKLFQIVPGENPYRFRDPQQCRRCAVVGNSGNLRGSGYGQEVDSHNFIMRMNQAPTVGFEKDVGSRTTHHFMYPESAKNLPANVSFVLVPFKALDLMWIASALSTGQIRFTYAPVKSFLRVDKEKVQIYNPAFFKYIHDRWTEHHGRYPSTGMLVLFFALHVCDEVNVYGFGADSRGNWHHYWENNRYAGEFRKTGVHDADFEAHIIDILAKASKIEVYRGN
Test: Reverse sialylation by ST3Gal-II in presence of citrate or 5′-nucleotides
Type: biochemical
Conditions: 0.2 mM [3], 7 mM 5′-CMP, no [5], Dowex-1 Formate
Procedure: FIG. 5. Effect of 5′-nucleotides on direct sialyltransferase activity (panel a) and reverse sialylation (panel b). a. Varying concentrations of 5′-CDP or 5′-CMP were added to 100 mM acceptor (specified below), 0.15 mM CMP-[9-^3H]NeuAc and either ST3Gal-II (0.2 mU), ST3Gal-III (0.5 mU) or ST6Gal-I (0.2 mU) for 4 h at 37° C. Products were separated using Sep-Pak C18 method. ST3Gal-III activity was measured using acceptor 4-O-MeGalβ1,4GlcNAcβ-O-Bn in the presence of 5′-CDP (●) and 5′-CMP (◯). ST6Gal-I activity was measured using Gal β1,4GlcNAcβ-O-Bn in the presence of 5′-CDP (▴) and 5′-CMP (Δ). ST3Gal-II using D-Fucβ1,3GalNAcα-O-Bn in the presence of 5′-CDP (▪) and 5′-CMP (□). b) Reverse sialylation by ST3Gal-II was measured in reaction mixtures containing 0.2 mM [9-^3H] [3], 7 mM 5′-CMP, ST3Gal-II (2 mU), D-Fucβ1,3GalNAcα-OBn (3.0 mM) and varying doses of either 5′-CDP (▴), 5′-UMP (◯) or 2-deoxy 5′-CMP (●) for 4 hours at 37° C. Reaction product ([9-^3H]NeuAcα2,3DFucβ1,3 GalNAcα-O-Bn) was isolated using Sep-Pak C18 method. In some runs, where was absent, the amount of CMP-NeuAc produced was quantified using the Dowex-1 Formate method in the presence of varying doses of 5′-CDP (▪).
Besides pH other distinctions were also observed between forward and reverse sialylation. In this regard, citrate ions tended to inhibit forward sialylation but not reverse sialylation activity (Table V). For these studies, the effect of citrate on the forward sialylation activity of ST3Gal-I, ST3Gal-II, ST3Gal-III and ST6Gal-I was examined. Reverse sialylation activity of ST3Gal-II was also measured in terms of: i) the formation of CMP-NeuAc from 5′-CMP; and ii) the transfer of NeuAc from this newly synthesized CMP-NeuAc to another O-glycan. From the data (Table V), it is evident that citrate inhibits the direct sialylation activity of all the enzymes mentioned above. However, both the synthesis of CMP-[9-^3H]NeuAc from 5′-CMP as well as the synthesis of [9-^3H]NeuAcα2,3D-Fucβ1,3 GalNAcα-O-Bn using the newly formed CMP-[9-^3H]NeuAc through reverse sialylation of ST3Gal-II was not inhibited by citrate.
The effect of 5′-nucleotides on forward sialylation (FIG. 5a) and reverse sialylation (FIG. 5b) were examined. […] The overall formation of [9-^3H]NeuAcα2,3D-Fucβ1,3 GalNAcα-O-Bn by the two-step reverse sialylation process, however, was inhibited by 5′-CDP and this is consistent with the finding that 5′-CDP inhibits forward sialylation in the second step.

Nc1ccn([C@@H]2O[C@H](COP(=O)(O)OP(=O)(O)O)[C@@H](O)[C@H]2O)c(=O)n1 [5′-CDP]
Effect on first step of reverse sialylation (formation of CMP-[9-3H]NeuAc from 5′-CMP): did not inhibit
